Measurements published in patent US10590143B2, “Herbicidally active (alkynyl-phenyl)-substituted cyclic dione compounds and derivatives thereof” (Syngenta Limited, priority 2013, dated 2020).

Key:
Test in all cases: Biological Example 2 glasshouse assay for herbicidal activity
Type in all cases: in vivo
[1] = tested on: Alopecurus myosuroides (ALOMY); conditions: post-emergence, 360 h, 30 g/ha, 14 or 15 DAA, 0.2% v/v X-77, read-out: percentage phytotoxicity ALOMY
Method: (§1) Seeds of a variety of monocotyledonous and dicotyledonous test plants are sown in standard soil in pots. The plants are cultivated for one day (for pre-emergence) or for about 12 days (range=10-13 days) (for post-emergence) under controlled conditions in a glasshouse (warm climate species at 24/18° C., cool climate species at 20/16° C., both at day/night; 16 hours light; 65% humidity).
(§2) An “instant formulation”, known as the “IF50”, containing 50 g/litre (i.e. 5% w/v) of the “technical” (i.e. unformulated) active ingredient is prepared by dissolving the active ingredient in a mixture of organic solvents and emulsifier, details of which are provided in the Table below. This IF50 is then mixed with a small, variable amount of acetone to aid dissolution, before addition of a 0.2% v/v aqueous solution of the adjuvant X-77 (which is a mixture of alkyl aryl polyoxyethylene glycols and free fatty acids in isopropanol, CAS Registry number 11097-66-8), as the aqueous diluent, to form an aqueous spray solution which contains a predetermined concentration of the active ingredient (which varies depending on the application rate of the active ingredient to the plants) and 0.2% v/v of the adjuvant X-77. This aqueous spray solution is then sprayed onto the plants, after one day's cultivation (for pre-emergence) or after about 12 days' cultivation (for post-emergence).
(§3) The test plants are then grown on, in a glasshouse (greenhouse) under controlled conditions (at either 24/18° C. or 20/16° C. (day/night) as mentioned above; 16 hours light; 65% humidity) and are watered twice daily. Either 14 or 15 days after application of the herbicide (14 or 15 DAA) (for post-emergence), or 20 days after application of the herbicide (20 DAA) (for pre-emergence), the test plants are evaluated visually, and an assessed percentage phytotoxicity score is given for each herbicidal application on each plant species (where 100%=total damage to plant; 0%=no damage to plant).
(§4) Some of the typical test plants are as follows: • Cool climate crop plants: Triticum aestivum (TRZAW, winter wheat), Brassica napus (BRSNN, rape, also called oilseed rape or rapeseed), Beta vulgaris (BEAVA, sugarbeet). • Warm climate crop plants: Glycine max (GLXMA, soybean). • Cool climate (“cool season”) grassy monocotyledonous weeds: Alopecurus myosuroides (ALOMY), Avena fatua (AVEFA), Lolium perenne (LOLPE), Poa annua (POAAN), Bromus tectorum (BROTE). • Warm climate (“warm season”) grassy monocotyledonous weeds: Setaria faberi (SETFA), SORVU (Sorghum bicolor (L.) Moench ssp. Bicolor, or Sorghum vulgare Pers.), Digitaria sanguinalis (DIGSA), Echinochloa crus-galli (ECHCG), Brachiaria plantaginea (BRAPL); Zea mays (ZEAMX, corn, maize, e.g. volunteer corn).

Avena fatua (AVEFA) = conditions: post-emergence, 360 h, 30 g/ha, 14 or 15 DAA, 0.2% v/v X-77, read-out: percentage phytotoxicity AVEFA
Method: as §1, §2, §3, §4

[2] = tested on: Brachiaria plantaginea (BRAPL); conditions: Urochloa plantaginea, post-emergence, 360 h, 30 g/ha, 14 or 15 DAA, 0.2% v/v X-77, read-out: percentage phytotoxicity BRAPL
Method: as §1, §2, §3, §4

[3] = tested on: Brassica napus (BRSNN, rape); conditions: Brassica napus, 360 h; post-emergence, 30 g/ha, 14 or 15 DAA, 0.2% v/v X-77; read-out: percentage phytotoxicity BRSNN
Method: as §1, §2, §3, §4

[4] = tested on: Digitaria sanguinalis (DIGSA); conditions: post-emergence, 360 h, 30 g/ha, 14 or 15 DAA, 0.2% v/v X-77, read-out: percentage phytotoxicity DIGSA
Method: as §1, §2, §3, §4

[5] = tested on: Echinochloa crus-galli (ECHCG); conditions: Echinochloa crus-galli, post-emergence, 360 h, 30 g/ha, 14 or 15 DAA, 0.2% v/v X-77, read-out: percentage phytotoxicity ECHCG
Method: as §1, §2, §3, §4

[6] = tested on: Glycine max (GLXMA, soybean); conditions: post-emergence, 360 h, 30 g/ha, 14 or 15 DAA, 0.2% v/v X-77, read-out: percentage phytotoxicity GLXMA
Method: as §1, §2, §3, §4

Lolium perenne (LOLPE) = conditions: post-emergence, 30 g/ha, 14 or 15 DAA; for pest or weed control at 30 g/ha: Lolium perenne, 360 h, 0.2% v/v X-77, read-out: percentage phytotoxicity LOLPE
Method: as §1, §2, §3, §4

Setaria faberi (SETFA) = conditions: post-emergence, 360 h, 30 g/ha, 14 or 15 DAA, 0.2% v/v X-77, read-out: percentage phytotoxicity SETFA
Method: as §1, §2, §3, §4

[7] = tested on: Triticum aestivum (TRZAW, winter wheat); conditions: post-emergence, 360 h, 30 g/ha, 14 or 15 DAA, 0.2% v/v X-77, read-out: percentage phytotoxicity TRZAW
Method: as §1, §2, §3, §4

[8] = tested on: Beta vulgaris (BEAVA, sugarbeet); conditions: post-emergence, 360 h, 30 g/ha, 14 or 15 DAA, 0.2% v/v X-77, read-out: percentage phytotoxicity BEAVA
Method: as §1, §2, §3, §4

[9] = tested on: SORVU (Sorghum bicolor (L.) Moench ssp. Bicolor, or Sorghum vulgare Pers.); conditions: post-emergence, 360 h, 30 g/ha, 14 or 15 DAA, 0.2% v/v X-77, read-out: percentage phytotoxicity SORVU
Method: as §1, §2, §3, §4

[10] = tested on: Zea mays (ZEAMX, corn, maize, e.g. volunteer corn); conditions: Zea mays, post-emergence, 360 h, 30 g/ha, 14 or 15 DAA, 0.2% v/v X-77, read-out: percentage phytotoxicity ZEAMX
Method: as §1, §2, §3, §4

| Structure (SMILES) | pest or weed control at 30 g/ha [1] | pest or weed control at 30 g/ha (Avena fatua (AVEFA)) | pest or weed control at 30 g/ha [2] | plant injury at 30 g/ha [3] | pest or weed control at 30 g/ha [4] | pest or weed control at 30 g/ha [5] | plant injury at 30 g/ha [6] | pest or weed control at 30 g/ha (Lolium perenne (LOLPE)) | pest or weed control at 30 g/ha (Setaria faberi (SETFA)) | plant injury at 30 g/ha [7] | plant injury at 30 g/ha [8] | percentage phytotoxicity LOLPE (Lolium perenne (LOLPE); 0.2% v/v X-77) | pest or weed control at 30 g/ha [9] | pest or weed control at 30 g/ha [10] |
| --- | --- | --- | --- | --- | --- | --- | --- | --- | --- | --- | --- | --- | --- | --- |
| Cc1cc(C)c(C2C(=O)C3CCC(C3)C2=O)c(C)c1 (stereo not drawn) [Compound X9, reference compound] | 0% | 0% | 70% | 0% | 30% | 20% | 0% | 0% | 70% | 0% | – | – | – | – |
| CCc1cc(C)cc(CC)c1C1C(=O)C2CCC(C2)C1=O (stereo not drawn) [Compound X10, reference compound] | 80% | – | 80% | 0% | 100% | – | 0% | 70% | 100% | – | 0% | 70% | 60% | 80% |
